According to US8193362B2 (Syngenta Crop Protection LLC, priority 2008, dated 2012):
Counter-ions that a name gives are not always drawn.

Tests used:
Type in all cases: in vivo
[1] = system: Heliothis virescens (Tobacco Budworm); assay: Comparative Heliothis virescens egg test in petri dishes on artificial diet; conditions: 144 h, 6 days incubation, read-out: percentage of dead larvae; for pest or weed control at 0.8 ppm: concentration 0.8 ppm; for pest or weed control at 1.5 ppm: concentration 1.5 ppm; for pest or weed control at 3 ppm: concentration 3 ppm; for pest or weed control at 6 ppm: concentration 6 ppm
Experimental: This Example illustrates the pesticidal/insecticidal properties of compounds of formula (I) compared to Comparative Compound A and Comparative Compound B. Comparative Compound A and Comparative Compound B were disclosed in WO 2006/003494.
(§1) Heliothis virescens (Tobacco Budworm):
Fresh eggs (0-24 h old) on filterpaper were placed in petri dishes on top of a layer of artificial diet and treated with diluted test solutions by pipetting. After an incubation period of 6 days, samples were checked for larval mortality and growth regulation. The percentage of dead larvae was assessed.

[2] = system: Spodoptera littoralis (Egyptian Cotton Leafworm); assay: Spodoptera littoralis cotton leaf disc spray test; conditions: foliar, 72 h, 200 ppm spray on cotton leaf discs, L1 larvae, mortality, feeding behavior, growth regulation 3 DAT
Text: Spodoptera littoralis (Egyptian Cotton Leafworm)
Cotton leaf discs were placed on agar in a 24-well microtiter plate and sprayed with test solutions at an application rate of 200 ppm. After drying, the leaf discs were infested with 5 L1 larvae. The samples were checked for mortality, feeding behavior, and growth regulation 3 days after treatment (DAT).

[3] = system: Heliothis virescens (Tobacco Budworm); assay: Heliothis virescens egg test on artificial diet in 24-well microtiter plate; conditions: 96 h, 200 ppm (concentration in well 18 ppm), eggs 0-24 h old, 4 days, egg mortality, larval mortality, growth regulation
Experimental: as §1
Eggs (0-24 h old) were placed in 24-well microtiter plate on artificial diet and treated with test solutions at an application rate of 200 ppm (concentration in well 18 ppm) by pipetting. After an incubation period of 4 days, samples were checked for egg mortality, larval mortality and growth regulation.

[4] = system: Plutella xylostella (Diamond Back Moth); assay: Plutella xylostella L2 larvae test on artificial diet in 24-well microtiter plate; conditions: 144 h, 200 ppm (concentration in well 18 ppm), 6 days, larval mortality, growth regulation
Experimental: Plutella xylostella (Diamond Back Moth):
(§2) A 24-well microtiter plate (MTP) with artificial diet was treated with test solutions at an application rate of 200 ppm (concentration in well 18 ppm) by pipetting. After drying, the MTP's were infested with L2 larvae (7-12 per well). After an incubation period of 6 days, samples were checked for larval mortality and growth regulation.

[5] = system: Diabrotica balteata (Corn Root Worm); assay: Diabrotica balteata L2 larvae test on artificial diet in 24-well microtiter plate; conditions: 120 h, 200 ppm (concentration in well 18 ppm), 5 days, larval mortality, growth regulation
Experimental: Diabrotica balteata (Corn Root Worm):
as §2, with “with” for “with L2”, “(L2) (6-10” for “(7-12”, “5” for “6”, “mortality,” for “mortality”

Structure (SMILES)	pest or weed control at 0.8 ppm [1] [%]	pest or weed control at 1.5 ppm [1] [%]	pest or weed control at 3 ppm [1] [%]	pest or weed control at 6 ppm [1] [%]	pest or weed control at 200 ppm [2] [%]	pest or weed control at 200 ppm [3] [%]	pest or weed control at 200 ppm [4] [%]	pest or weed control at 200 ppm [5] [%]	pest or weed control at 200 ppm ([2]; in Gossypium hirsutum) [%]	pest or weed control at 200 ppm ([5]; in Zea mays) [%]
O=C(Nc1ccc(Cl)nc1C1CCN(C/C=C/c2ccc(Cl)cc2)CC1)c1ccnc(Cl)c1 [Comparative Compound A, reference compound]	30	50	70	93	–	–	–	–	–	–
O=C(Nc1cc(Cl)cnc1C1CCN(C/C=C/c2ccc(Cl)cc2)CC1)c1ccnc(Cl)c1 [Comparative Compound B, reference compound]	0	50	93	100	–	–	–	–	–	–
O=C(Nc1ccc(C(F)(F)F)nc1C1CCN(C/C=C/c2ccc(Cl)cc2)CC1)c1ccnc(Cl)c1 [Compound A14, 2-chloro-N-{1′-[(E)-3-(4-chloro-phenyl)-allyl]-6-trifluoromethyl-1′,2′,3′,4′,5′,6′-hexahydro-[2,4′]bipyridinyl-3-yl}-isonicotinamide]	100	100	100	100	≥ 80	–	–	–	–	–
O=C(Nc1cc(F)c(Cl)nc1C1CCN(C/C=C/c2ccc(Cl)cc2)CC1)c1ccnc(Cl)c1 [Compound B1, 2-chloro-N-{6-chloro-1′-[(E)-3-(4-chloro-phenyl)-allyl]-5-fluoro-1′,2′,3′,4′,5′,6′-hexahydro-[2,4′]bipyridinyl-3-yl}-isonicotinamide]	80	100	100	100	≥ 80	≥ 80	≥ 80	≥ 80	–	–
O=C(Nc1cc(Cl)c(Cl)nc1C1CCN(C/C=C/c2ccc(Cl)cc2)CC1)c1ccnc(Cl)c1 [Compound C1, 2-chloro-N-{5,6-dichloro-1′-[(E)-3-(4-chloro-phenyl)-allyl]-1′,2′,3′,4′,5′,6′-hexahydro-[2,4′]bipyridinyl-3-yl}-isonicotinamide]	100	100	100	100	≥ 80	–	–	≥ 80	–	–
O=C(Nc1cc(F)c(Br)nc1C1CCN(C/C=C/c2ccc(Cl)cc2)CC1)c1ccnc(Cl)c1 [Compound D3, N-{6-bromo-1′-[(E)-3-(4-chloro-phenyl)-allyl]-5-fluoro-1′,2′,3′,4′,5′,6′-hexahydro-[2,4]bipyridinyl-3-yl}-2-chloro-isonicotinamide]	100	100	100	100	≥ 80	≥ 80	≥ 80	≥ 80	–	–
O=C(Nc1cc(Cl)c(C(F)(F)F)nc1C1CCN(C/C=C/c2ccc(Cl)cc2)CC1)c1ccnc(Cl)c1 [Compound H1, 2-chloro-N-{5-chloro-1′-[(E)-3-(4-chloro-phenyl)-allyl]-6-trifluoromethyl-1′,2′,3′,4′,5′,6′-hexahydro-[2,4′]bipyridinyl-3-yl}-isonicotinamide]	40	78	100	100	≥ 80	≥ 80	≥ 80	–	–	–
O=C(Nc1c(C2CCN(C/C=C/c3ccc(Cl)cc3)CC2)nc(Cl)c(Cl)c1Cl)c1ccnc(Cl)c1 [Compound J1, 2-chloro-N-{4,5,6-trichloro-1′-[(E)-3-(4-chlorophenyl)-allyl]-1′,2′,3′,4′,5′,6′-hexahydro-[2,4′]bipyridinyl-3-yl}-isonicotinamide]	40	90	93	100	≥ 80	≥ 80	≥ 80	–	–	–
O=C(Nc1c(F)cc(C(F)(F)F)nc1C1CCN(C/C=C/c2ccc(Cl)cc2)CC1)c1ccnc(Cl)c1 [Compound K1, 2-chloro-N-{1′-[(E)-3-(4-chloro-phenyl)-allyl]-4-fluoro-6-trifluoromethyl-1′,2′,3′,4′,5′,6′-hexahydro-[2,4′]bipyridinyl-3-yl}-isonicotinamide]	–	–	–	–	≥ 80	≥ 80	≥ 80	–	–	–
O=C(Nc1cc(C(F)(F)F)c(F)nc1C1CCN(C/C=C/c2ccc(Cl)cc2)CC1)c1ccnc(Cl)c1 [Compound M1, 2-chloro-N-{1′-[(E)-3-(4-chloro-phenyl)-allyl]-6-fluoro-5-trifluoromethyl-1′,2′,3′,4′,5′,6′-hexahydro-[2,4′]bipyridinyl-3-yl}-isonicotinamide]	–	–	–	–	≥ 80	≥ 80	≥ 80	≥ 80	–	–
O=C(Nc1cc(F)c(F)nc1C1CCN(C/C=C/c2ccc(Cl)cc2)CC1)c1ccnc(Cl)c1 [Compound N1, 2-chloro-N-{1′-[(E)-3-(4-chloro-phenyl)-allyl]-5,6-difluoro-1′,2′,3′,4′,5′,6′-hexahydro-[2,4′]bipyridinyl-3-yl}-isonicotinamide]	–	–	–	–	≥ 80	≥ 80	≥ 80	≥ 80	–	–
O=C(Nc1ccc(C(F)F)nc1C1CCN(C/C=C/c2ccc(Cl)cc2)CC1)c1ccnc(Cl)c1 [Compound O1, 2-chloro-N-{1′-[(E)-3-(4-chloro-phenyl)-allyl]-6-difluoromethyl-1′,2′,3′,4′,5′,6′-hexahydro-[2,4]bipyridinyl-3-yl}-isonicotinamide]	–	–	–	–	≥ 80	≥ 80	≥ 80	–	–	–
O=C(Nc1ccc(OC(F)F)nc1C1CCN(C/C=C/c2ccc(Cl)cc2)CC1)c1ccnc(Cl)c1 [Compound P1, 2-chloro-N-{1′-[(E)-3-(4-chloro-phenyl)-allyl]-6-difluoromethoxy-1′,2′,3′,4′,5′,6′-hexahydro-[2,4′]bipyridinyl-3-yl}-isonicotinamide]	–	–	–	–	≥ 80	≥ 80	≥ 80	≥ 80	–	–
O=C(Nc1ccc(C(F)(F)F)nc1C1CCN(C/C=C/c2ccc(Cl)cc2)CC1)c1ccnc(Cl)c1 [Compound Q1, 2-chloro-N-{1′-[(E)-3-(4-chloro-phenyl)-allyl]-6-trifluoromethyl-1′,2′,3′,4′,5′,6′-hexahydro-[2,4′]bipyridinyl-3-yl}-isonicotinamide 2-ethyl-hexanoic acid salt]	–	–	–	–	–	≥ 80	≥ 80	≥ 80	–	–
O=C(Nc1cc(Cl)c(Cl)nc1C1CCN(C/C=C/c2ccc(Cl)cc2)CC1)c1ccnc(Cl)c1 [Compound Q20]	–	–	–	–	–	≥ 80	≥ 80	–	–	–
O=C(Nc1ccc(C(F)(F)F)nc1C1CC[N+]([O-])(C/C=C/c2ccc(Cl)cc2)CC1)c1ccnc(Cl)c1 (stereo not drawn) [Compound R1]	–	–	–	–	–	≥ 80	≥ 80	–	≥ 80	≥ 80
O=C(Nc1cc(Cl)c(Cl)nc1C1CC[N+]([O-])(C/C=C/c2ccc(Cl)cc2)CC1)c1ccnc(Cl)c1 (stereo not drawn) [Compound R2]	–	–	–	–	≥ 80	≥ 80	≥ 80	≥ 80	–	–
O=C(Nc1ccc(C(F)(F)F)nc1C1CC[N+]([O-])(C/C=C/c2ccc(C(F)(F)F)cc2)CC1)c1ccnc(Cl)c1 (stereo not drawn) [Compound R3]	–	–	–	–	≥ 80	≥ 80	≥ 80	≥ 80	–	–
O=C(Nc1cc(C(F)(F)F)c(Cl)nc1C1CC[N+]([O-])(C/C=C/c2ccc(Br)cc2)CC1)c1ccnc(Cl)c1 (stereo not drawn) [Compound R4]	–	–	–	–	≥ 80	≥ 80	≥ 80	–	–	–
